Target: T1, human TRPV4 (Homo sapiens, UniProt Q9HBA0)
T1 construct: expressed in transfected cells; host or cells: HeLa cells (human cervical cancer-derived, ATCC), transient transfection
Assay: Suppression of TRPV4 activity: intracellular calcium ion influx in human TRPV4 expression HeLa cells stimulated with GSK1016790a
Format: cell-based
Conditions: GSK + solvent = 100%, n = 3, Mean ± SE
Protocol: Using a primer set consisting of oligonucleotides represented by the base sequences described below which was synthesized with reference to the published human TRPV4 gene sequence using cDNA obtained by reverse transcribing the total RNA extracted from human duodenum-derived cells (Hutu-80 cells, purchased from American Type Culture Collection) as a template, the polymerase chain reaction (PCR) was carried out under the following conditions.
The obtained PCR product was purified using a High Pure PCR Product Purification Kit (manufactured by Roche). Using the purified PCR product and pcDNA3.1 Directional TOPO Expression Kit (manufactured by Invitrogen), a human TRPV4 gene expression vector was produced.
A human cervical cancer-derived cell line (HeLa cells, purchased from American Type Culture Collection) was cultured using a DMEM/F12 medium containing 10% fetal bovine serum (manufactured by Invitrogen). HeLa cells were seeded in a 10 cm cell culture dish at 2×10^5 cells/dish. After culturing for 2 days, the cells were transfected with the human TRPV4 gene expression vector (7.7 lag) produced in the above (1) using TransIT-HeLaMONSTER Transfection Kit (manufactured by Mirus) and cultured for 1 day.
The cells were detached using Detachin (manufactured. by Genlantis Inc.), seeded in a DMEM/F12 medium containing 10% fetal bovine serum on a 96 well Optical bottom plate (manufactured by Nunc A/S) at a cell density of 2.0×10^4 cells/90 μL/well, and further cultured for 1 day.
Measurement of the intracellular calcium ion influx activity was carried out using Calcium Kit II-fluo 4 (trade name, DOJTNDO). 90 μL/well of a loading buffer containing Fluo4-AM was added to the human TRPV4 expression cells produced in the above (2), and incubated at 37° C. for 1 hour. Thereafter, the fluorescence intensity (excitation wavelength: 488 nm, fluorescence wavelength: 524 nm) was measured at 37° C. every two seconds using a fluorescence plate reader (FDSS/μCFLL Functional Drug Screening System C13299, manufactured by Hamamatsu Photonics K. K.). After 30 seconds from the start of the measurement, each of GSK1016790a (manufactured by Sigma) which is the TRPV4 agonist, and the cassis extract, or D3R, C3R, D3G, or C3G prepared in the above Production Example as the sample was diluted with a dilution buffer of the measurement kit, 20 μL/well of a mixed solution thereof (mixed immediately before addition) was added, and the change of fluorescence intensity was measured every two seconds until 300 seconds. […]
The TRPV4 activity of the sample was calculated by the following equation assuming that the calcium ion influx rate by the treatment of GSK1016790a which is the TRPV4 agonist was 100%. […]

T1 sequence (Q9HBA0 whole entry): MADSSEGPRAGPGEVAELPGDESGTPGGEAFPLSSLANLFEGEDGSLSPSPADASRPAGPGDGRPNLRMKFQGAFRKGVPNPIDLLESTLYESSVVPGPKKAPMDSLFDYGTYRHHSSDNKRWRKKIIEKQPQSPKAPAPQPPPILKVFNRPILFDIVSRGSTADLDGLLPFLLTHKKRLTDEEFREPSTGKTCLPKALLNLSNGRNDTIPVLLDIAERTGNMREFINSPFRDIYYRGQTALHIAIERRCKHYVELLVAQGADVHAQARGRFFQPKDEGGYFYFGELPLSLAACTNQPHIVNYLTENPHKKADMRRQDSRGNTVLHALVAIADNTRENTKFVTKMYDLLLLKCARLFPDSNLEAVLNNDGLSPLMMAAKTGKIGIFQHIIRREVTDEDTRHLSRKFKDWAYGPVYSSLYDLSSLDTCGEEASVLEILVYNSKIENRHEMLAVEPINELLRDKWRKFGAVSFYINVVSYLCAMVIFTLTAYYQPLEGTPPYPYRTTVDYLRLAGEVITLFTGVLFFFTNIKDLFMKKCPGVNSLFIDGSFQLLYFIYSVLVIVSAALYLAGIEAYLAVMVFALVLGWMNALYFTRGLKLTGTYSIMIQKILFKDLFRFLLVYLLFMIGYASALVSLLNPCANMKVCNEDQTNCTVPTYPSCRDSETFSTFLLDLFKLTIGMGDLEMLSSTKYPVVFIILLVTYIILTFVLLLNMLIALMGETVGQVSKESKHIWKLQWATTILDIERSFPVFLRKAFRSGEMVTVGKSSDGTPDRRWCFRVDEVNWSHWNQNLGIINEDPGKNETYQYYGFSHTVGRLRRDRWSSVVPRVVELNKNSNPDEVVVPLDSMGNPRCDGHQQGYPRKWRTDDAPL

## OC[C@H]1O[C@@H](Oc2cc3c(O)cc(O)cc3[o+]c2-c2ccc(O)c(O)c2)[C@H](O)[C@@H](O)[C@@H]1O [C3G, cyanidin-3-glucoside, reference compound]
Sample 0.05 μg/mL + GSK 10 nM
  Intracellular Ca^2+ increase rate (%): 94.4 ± 3.1%
Sample 0.5 μg/mL + GSK 10 nM
  Intracellular Ca^2+ increase rate (%): 101.5 ± 4.1%

## OC[C@H]1O[C@@H](Oc2cc3c(O)cc(O)cc3[o+]c2-c2cc(O)c(O)c(O)c2)[C@H](O)[C@@H](O)[C@@H]1O [D3G, delphinidin-3-glucoside, reference compound]
Sample 0.14 μg/mL + GSK 10 nM
  Intracellular Ca^2+ increase rate (%): 101.4 ± 2.7%
Sample 1.4 μg/mL + GSK 10 nM
  Intracellular Ca^2+ increase rate (%): 100.4 ± 3.2%
